Data on 14 substances can be found in patent US20230043813A1, “METHODS FOR TARGETED CELL DEPLETION” (The Regents of the University of California, priority 2019, published 2023).

The test system of data set [1] is Cas9 expressing U-251 and LN-229. The experiment in a line: comet assay (genomic fragmentation). The data set is classed as cell-based, human. The settings on record: 24 hours post-transduction, compared to sgNT-1/2/3. The source says:
To look at the genomic effects of repetitive loci targeting, DNA from lysed targeted cells was separated on agarose-coated slides.

The test system of data set [2] is U-251, LN-229, T98G and LN-18 glioblastoma cells. The experiment in a line: luminescence-based quantification of cell viability. Also noted: species or system human. Particulars: over five days. The procedure:
To investigate the speed of cell elimination by either method, Cas9 expressing TMZ-sensitive U-251 and LN-229, and TMZ-resistant T98G and LN-18, glioblastoma cells were treated with TMZ or these cells were transduced with lentiviral vectors expressing sgCIDEs.

Data set [3] deals with Cas9 expressing U-251, LN-229, T98G, and LN-18 cells. Description: colony formation assay (crystal violet). The data set is classed as cell-based, human. The settings on record: all four tested GBM cell lines, two weeks. The procedure:
Because recurrent tumors develop from cells that escape treatment, either by avoiding exposure, tolerating the effects, or developing resistance, colony formation assays were performed to evaluate the robustness of CRISPR-Cas genome shredding in eliminating target cells.
TMZ-resistant LN-229 cell lines were isolated to determine which types of treatments could overcome such resistance. Cas9 expressing U-251, LN-229, T98G, and LN-18 cells were stably transduced with lentiviral vectors expressing sgNT-1/2 or sgCIDE-1/2/3/6/8/10 (Table 2), and seeded at 100, 1,000, and 10,000 cells per 6-well plate. Control cells were treated with DMSO or TMZ (50 μM).

Another data set concerns HEK293T and HAP1 cells. Description: mammalian competitive proliferation assay, cells expressing Cas9 WT. It is filed as cell-based, human. Particulars: WT Cas9, eight-day assay period. The source says:
(§1) For assessment of CRISPR-Cas programmed cell depletion using guide RNAs targeting an essential gene (RPA1) or sgCIDEs targeting hundreds of thousands of loci within the genome, cells were stably transduced with a lentiviral vector expressing Cas9-wt (pCF226) or ProCas9Flavi (pCF730) and selected on puromycin. Subsequently, these cell lines were further stably transduced with vectors expressing various mCherry-tagged sgRNAs and analyzed as follows: 1) After mixing sgRNA expressing populations with parental cells, the fraction of mCherry-positive cells was quantified over time. Different sgRNAs targeting a neutral gene (sgOR2B6), an essential gene (sgRPA1), >100,000 genomic loci (sgCIDE) and a non-targeting control (sgNT) were compared. 2) Alternatively, the cell lines were partially transduced with lentiviral vectors expressing a GFP-tagged dTEV (pCF736) or WNV (pCF738) protease, and cell depletion quantified by flow cytometry. Depletion of protease-expressing (GFP+) cells was quantified among the sgRNA-positive (mCherry+) population.
The effect of guide RNA expression on cell viability was assessed using a competitive proliferation assay in which cells expressing a specific sgRNA were mixed with parental cells expressing only Cas9 WT, and the mCherry-positive population was followed over time. […] Guide RNAs targeting the essential RPA1 gene depleted over the eight-day assay period.

In data set [4] the test system is Cas9 expressing U-251, LN-229, T98G, and LN-18 glioblastoma cells. Description: cell cycle analysis (PI staining, flow cytometry). The data set is classed as cell-based, human. Particulars: one to five days; TMZ 50 μM or 100 μM. As to the method: The effects of genome shredding on cell cycle progression were then assessed. Cells were treated with TMZ or sgCIDEs for one to five days and then stained with PI after fixation for analysis by flow cytometry. […] Increases of the Sub-G1 population was more prominent in TP53-mutant U-251 cells compared LN-229 with wild-type TP53, consistent with previous observations that TP53 status affects resolution of the G2/M arrest.
A general note: Flow cytometry measures light scatter and fluorescence of single cells or particles in a stream.

For data set [5], the system named is HEK293T and HAP1 cells expressing ProCas9Flavi. The experiment in a line: competitive proliferation assay, cells expressing ProCas9Flavi. The data set is classed as cell-based, human. The settings on record: for cell depletion with protease: ProCas9Flavi cells, WNV protease vs dTEV; for cell depletion in the absence of a stimulus: genomically integrated ProCas9Flavi.
Text: as §1
Cas-induced death by editing or ‘CIDE, as an output constrains the performance of ProCas9. The system remains off to minimize genomic damage yet is vigilant to respond to a stimulus. To develop this protease-induced altruistic defense platform, stable expression of the best CIDE guide RNAs (sgCIDE-2, sgCIDE-4) was assessed in conjunction with a genomically integrated ProCas9Flavi cassette to determine cell viability in the absence of a stimulus (FIG. 5B). […] Induction of this stably integrated altruistic defense system was then tested by Flavivirus proteases.

On to “sgCIDE-1: guide RNA TGTAATCCCAGCACTTTGGG (SEQ ID NO:1), targets repetitive genomic sites (chemistry not given here)”, for which, in data set [1], the “comet tails (genomic fragmentation)” value is recorded as “very long tails”. In addition, the “lethality (cell viability)” value in data set [2] is on record as “viral titer-dependent lethality in all four tested glioblastoma cell lines”. For the same substance, the “effect on colony count” value in data set [3] is reported as “over three log-scales reduction in colony count”. Also, in the data set with HEK293T and HAP1 cells, the “depletion of the mCherry-positive population” value was “rapid elimination of the mCherry-positive population”. In addition, the cell cycle profile entry in data set [4] is “rapid increase of the Sub-G1 population starting at day one post-transduction”.
As to “sgCIDE-2: guide RNA TCCCAAAGTGCTGGGATTAC (SEQ ID NO:2) (chemistry not given here)”, in data set [1], the “comet tails (genomic fragmentation)” value was “very long tails”. In addition, the “lethality (cell viability)” value in data set [2] is given as “viral titer-dependent lethality in all four tested glioblastoma cell lines”. In addition, the “effect on colony count” value in data set [3] is given as “over three log-scales reduction in colony count”. Besides, the “depletion of the mCherry-positive population” value in the data set on HEK293T and HAP1 cells was “rapid elimination of the mCherry-positive population”. Moreover, in data set [4], the cell cycle profile entry is on record as “rapid increase of the Sub-G1 population starting at day one post-transduction”. In addition, in data set [5], the “cell depletion with protease” value was “specific cell depletion” and the “cell depletion in the absence of a stimulus” value is “only minimal amounts of cell depletion”.
Consider “sgCIDE-3: guide RNA GCCTGTAATCCCAGCACTTT (SEQ ID NO:3) (chemistry not fully specified)”, for which the “comet tails (genomic fragmentation)” value in data set [1] is reported as “very long tails”. The “lethality (cell viability)” value in data set [2] was “viral titer-dependent lethality in all four tested glioblastoma cell lines”. In data set [3], the “effect on colony count” value is recorded as “over three log-scales reduction in colony count”. Besides, in data set [4], the cell cycle profile entry is reported as “rapid increase of the Sub-G1 population starting at day one post-transduction”.
In the case of “sgCIDE-4: guide RNA CGCCTGTAATCCCAGCACTT (SEQ ID NO:4) (chemistry not given here)”, the “depletion of the mCherry-positive population” value with HEK293T and HAP1 cells was “rapid elimination of the mCherry-positive population”. Besides, in data set [5], the “cell depletion with protease” value is “specific cell depletion” and the “cell depletion in the absence of a stimulus” value is given as “only minimal amounts of cell depletion”.
Consider “sgCIDE-5: guide RNA CCTCGGCCTCCCAAAGTGCT (SEQ ID NO:5) (chemistry not given here)”, for which, in the data set with HEK293T and HAP1 cells, the “depletion of the mCherry-positive population” value is recorded as “rapid elimination of the mCherry-positive population”.
As for “sgCIDE-6: guide RNA CCCAGCACTTTGGGAGGCCG (SEQ ID NO:6) (chemistry not fully specified)”, in data set [2], the “lethality (cell viability)” value is “viral titer-dependent lethality in all four tested glioblastoma cell lines”. Moreover, the “effect on colony count” value in data set [3] is recorded as “over three log-scales reduction in colony count”. The cell cycle profile result in data set [4] is given as “rapid increase of the Sub-G1 population starting at day one post-transduction”.
For the substance “sgCIDE-8: guide RNA CTGTAATCCCAGCACTTTGG (SEQ ID NO:8) (chemistry not fully specified)”, the “lethality (cell viability)” value in data set [2] is recorded as “viral titer-dependent lethality in all four tested glioblastoma cell lines”. The “effect on colony count” value in data set [3] is on record as “over three log-scales reduction in colony count”. Besides, the cell cycle profile result in data set [4] was “rapid increase of the Sub-G1 population starting at day one post-transduction”.
For “sgCIDE-10: guide RNA TTCTCCTGCCTCAGCCTCCC (SEQ ID NO:10) (chemistry not fully specified)” the same measures were “viral titer-dependent lethality in all four tested glioblastoma cell lines”, “over three log-scales reduction in colony count” and “rapid increase of the Sub-G1 population starting at day one post-transduction”.
On to “sgNT-1: non-targeting guide RNA GGCCAAACGTGCCCTGACGG (SEQ ID NO:29) (chemistry not fully specified) [reference compound]”, for which the “lethality (cell viability)” value in data set [2] is listed as “no effect”. Further, the “effect on colony count” value in data set [3] is “little effect on colony formation”. Moreover, the cell cycle profile result in data set [4] is reported as “comparable normal cell cycle profiles”.
For “sgNT-2: non-targeting guide RNA GCGATGGGGGGGTGGGTAGC (SEQ ID NO:30) (chemistry not fully specified) [reference compound]”, the “lethality (cell viability)” value in data set [2] was “no effect”. For the same substance, in data set [3], the “effect on colony count” value was “little effect on colony formation”. Further, the cell cycle profile entry in data set [4] was “comparable normal cell cycle profiles”.
As to “sgOR2B6-1: guide RNA to olfactory receptor gene, CATTATTCTAGTGTCACGCC (SEQ ID NO:32) (chemistry not given here) [reference compound]”, the “depletion of the mCherry-positive population” value in the data set on HEK293T and HAP1 cells is recorded as “no depletion”. Moreover, the cell cycle profile result in data set [4] is reported as “comparable normal cell cycle profiles”.
For “sgOR2B6-2: guide RNA to olfactory receptor gene, GGGTATGAAGTTTGGTGTCC (SEQ ID NO:33) (chemistry not given here) [reference compound]”, the “depletion of the mCherry-positive population” value in the data set on HEK293T and HAP1 cells was “no depletion”. Further, in data set [4], the cell cycle profile entry is given as “comparable normal cell cycle profiles”.
For the substance “sgRPA1-2: guide RNA to essential gene RPA1, TACCTGGAGCAACTCCCGAG (SEQ ID NO:36) [reference compound]”, the cell cycle profile result in data set [4] is “accumulation in S-phase starting at day three, accompanied by increase of the Sub-G1 population”.
For “sgRPA1-3: guide RNA to essential gene RPA1, ACTTTCGTCAACCAGTTCTA (SEQ ID NO:37) [reference compound]”, the cell cycle profile entry in data set [4] is “accumulation in S-phase starting at day three, accompanied by increase of the Sub-G1 population”.
